Reference: ChEMBL document CHEMBL5036378, “Discovery of 5-Aryl-2,4-diaminopyrimidine Compounds as Potent and Selective IRAK4 Inhibitors” (ACS Med Chem Lett, 2022)

Tests used:
[1] = molecular target: T1, Interleukin-1 receptor-associated kinase 4 (Homo sapiens, UniProt Q9NWZ3); test: Inhibition of IRAK4 (unknown origin) in presence of MBP as substrate by ADP-Glo assay
T1 sequence (Q9NWZ3 whole entry): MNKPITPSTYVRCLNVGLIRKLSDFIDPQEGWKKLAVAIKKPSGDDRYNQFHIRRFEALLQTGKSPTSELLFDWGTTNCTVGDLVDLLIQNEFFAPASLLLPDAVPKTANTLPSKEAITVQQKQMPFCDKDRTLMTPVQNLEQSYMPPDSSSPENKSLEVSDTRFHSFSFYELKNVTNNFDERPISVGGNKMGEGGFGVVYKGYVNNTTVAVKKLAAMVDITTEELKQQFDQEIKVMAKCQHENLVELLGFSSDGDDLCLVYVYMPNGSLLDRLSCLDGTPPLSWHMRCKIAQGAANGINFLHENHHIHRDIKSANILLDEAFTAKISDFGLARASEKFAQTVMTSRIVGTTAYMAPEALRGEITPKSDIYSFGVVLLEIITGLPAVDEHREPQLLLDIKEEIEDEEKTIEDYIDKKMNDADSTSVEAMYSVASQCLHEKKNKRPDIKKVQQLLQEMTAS

[2] = molecular target: T2, Mitogen-activated protein kinase kinase kinase 7 (Homo sapiens, UniProt O43318); test: Inhibition of TAK1 (unknown origin) in presence of MBP as substrate by ADP-Glo assay
T2 sequence (O43318 whole entry): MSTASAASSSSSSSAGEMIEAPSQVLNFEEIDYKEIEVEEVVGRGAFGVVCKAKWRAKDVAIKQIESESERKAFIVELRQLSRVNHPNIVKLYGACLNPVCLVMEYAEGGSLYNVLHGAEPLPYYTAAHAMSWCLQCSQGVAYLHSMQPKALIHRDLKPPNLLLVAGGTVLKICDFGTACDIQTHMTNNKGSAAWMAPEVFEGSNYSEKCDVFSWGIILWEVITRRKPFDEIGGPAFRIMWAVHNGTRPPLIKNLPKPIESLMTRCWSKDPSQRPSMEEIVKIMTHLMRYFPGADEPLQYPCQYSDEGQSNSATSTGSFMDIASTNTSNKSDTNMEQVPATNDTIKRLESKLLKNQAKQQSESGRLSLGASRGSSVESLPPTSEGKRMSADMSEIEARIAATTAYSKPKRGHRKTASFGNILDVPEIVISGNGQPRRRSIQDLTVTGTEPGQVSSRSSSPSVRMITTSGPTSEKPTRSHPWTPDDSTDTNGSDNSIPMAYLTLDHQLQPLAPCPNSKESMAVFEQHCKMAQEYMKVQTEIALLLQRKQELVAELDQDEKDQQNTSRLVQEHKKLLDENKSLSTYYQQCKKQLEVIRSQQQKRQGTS

THP-1 = test: Antiinflammatory activity against human THP-1 cells assessed as inhibition of LPS induced IL-23 production preincubated with compound for 1 hr followed by LPS stimulation and measured after 18 hrs by cell based ELISA method; type: functional
[3] = Drug concentration in female BALB/c mouse plasma at 75 mg/kg, po incubated for 30 mins followed by IL-1beta administration and measured after 30 mins; type: ADME, organism-based; conditions: time 60 min, read-out: Drug uptake
Blood = test: Antiinflammatory activity against human whole blood assessed as inhibition of IL-1beta induced MIP-1beta production preincubated with compound for 1 hr followed by IL-1beta stimulation and measured after 12 hrs by cell based ELISA method; type: functional, tissue-based
Mus musculus = test: Antiinflammatory activity in female BALB/c mouse assessed as inhibition of IL-1beta induced IL-6 levels at 75 mg/kg, po for 30 mins followed by IL-1beta administration and measured after 1.5 hrs by ELISA method; type: functional; conditions: time 2 hrs
[4] = Antiinflammatory activity against human monocyte derived dendritic cells assessed as inhibition of LPS induced IL-23 production preincubated with compound for 1 hr followed by LPS stimulation and measured after 18 hrs by cell based ELISA method; type: functional
HUVEC [5] = test: Antiinflammatory activity against HUVEC cells assessed as inhibition of LPS induced IL-6 production measured by ELISA method; type: functional, cell-based; conditions: Homo sapiens
HUVEC [6] = test: Antiinflammatory activity against HUVEC cells assessed as inhibition of IL-1beta induced IL-6 production preincubated with compound for 1 hr followed by IL-1beta stimulation and measured after 12 hrs by cell based ELISA method; type: functional; conditions: Homo sapiens

| SMILES | IC50 [1] | IC50 [2] | IC50 (THP-1) | further results |
| --- | --- | --- | --- | --- |
| NC(=O)[C@@H]1[C@H](Nc2nc(Nc3cccc(C(=O)N4CCCC4)c3)ncc2-c2ccncc2)[C@H]2C=C[C@@H]1C2 | 10 nM | 230 nM | 320 nM |  |
| Cc1cnc(Nc2cccc(C(=O)N3CCCC3)c2)nc1N[C@H]1[C@@H](C(N)=O)[C@@H]2C=C[C@H]1C2 |  |  | 100 nM |  |
| NC(=O)[C@@H]1[C@H](Nc2nc(Nc3cccc(C(=O)N4CCCC4)c3)ncc2-c2cncc(F)c2)[C@H]2C=C[C@@H]1C2 |  |  |  | concentration at 1 h [3]: 2880 ng/mL |
| NC(=O)[C@@H]1[C@H](Nc2nc(Nc3cccc(C(=O)N4CCCC4)c3)ncc2-c2ccsc2)[C@H]2C=C[C@@H]1C2 | 5 nM | 27 nM | 110 nM |  |
| NC(=O)[C@@H]1[C@H](Nc2nc(Nc3ccc(-c4cnco4)cc3)ncc2-c2cccc(F)c2)[C@H]2C=C[C@@H]1C2 | 37 nM | 390 nM | 290 nM |  |
| NC(=O)[C@@H]1[C@H](Nc2nc(Nc3cccc(C(=O)N4CCCC4)c3)ncc2-c2cccc(F)c2)[C@H]2C=C[C@@H]1C2 | 4 nM | 24 nM | 870 nM |  |
| NC(=O)[C@@H]1[C@H](Nc2nc(Nc3cc(F)cc(N4CCOCC4)c3)ncc2-c2cccc(F)c2)[C@H]2C=C[C@@H]1C2 | 12 nM | 1000 nM | 250 nM |  |
| NC(=O)[C@@H]1[C@H](Nc2nc(Nc3ccc(N4CCOCC4)nc3)ncc2-c2cccc(F)c2)[C@H]2C=C[C@@H]1C2 | 25 nM | 450 nM | 210 nM |  |
| CN1CCN(c2cc(F)cc(Nc3ncc(-c4cccc(F)c4)c(N[C@H]4[C@@H](C(N)=O)[C@@H]5C=C[C@H]4C5)n3)c2)CC1 | 18 nM | 100 nM | 260 nM |  |
| NC(=O)[C@@H]1[C@H](Nc2nc(Nc3ccc(OCCN4CCCC4)cc3)ncc2-c2cccnc2)[C@H]2C=C[C@@H]1C2 | 103 nM | 380 nM | 700 nM |  |
| CN1CCN(C(=O)c2cccc(Nc3ncc(-c4cccc(F)c4)c(N[C@H]4[C@@H](C(N)=O)[C@@H]5C=C[C@H]4C5)n3)c2)CC1 | 5 nM | 48 nM | 130 nM |  |
| NC(=O)[C@@H]1[C@H](Nc2nc(Nc3cccc(C(=O)N4CCCC4)c3)ncc2C2CC2)[C@H]2C=C[C@@H]1C2 |  |  | 90 nM |  |
| NC(=O)[C@@H]1[C@H](Nc2nc(Nc3cccc(C(=O)N4CCOCC4)c3)ncc2-c2cccc(F)c2)[C@H]2C=C[C@@H]1C2 | 14 nM | 94 nM | 220 nM |  |
| CN1CCN(c2cc(Nc3ncc(-c4cccc(F)c4)c(N[C@H]4[C@@H](C(N)=O)[C@@H]5C=C[C@H]4C5)n3)ccn2)CC1 | 6 nM | 120 nM | 50 nM |  |
| N#Cc1cccc(-c2cnc(Nc3cccc(C(=O)N4CCCC4)c3)nc2N[C@H]2[C@@H](C(N)=O)[C@@H]3C=C[C@H]2C3)c1 |  | 100 nM | 280 nM |  |
| NC(=O)[C@@H]1[C@H](Nc2nc(Nc3ccnc(N4CCOCC4)c3)ncc2-c2cccc(F)c2)[C@H]2C=C[C@@H]1C2 | 8 nM | 160 nM | 40 nM |  |
| NC(=O)[C@@H]1[C@H](Nc2nc(Nc3cccc(C(=O)N4CCCC4)c3)ncc2-c2ccnc(F)c2)[C@H]2C=C[C@@H]1C2 |  |  | 100 nM | concentration at 1 h [3]: 6820 ng/mL; IC50 (Blood): 510 nM; inhibition in vivo at 75 mg/kg (Mus musculus): 64%; IC50 [4]: 110 nM; IC50 (HUVEC [5]): 120 nM; IC50 (HUVEC [6]): 110 nM |

Further lines, with some results ahead:

| IC50 [1] | IC50 [2] | IC50 (THP-1) | SMILES | further results |
| --- | --- | --- | --- | --- |
| 25 nM | 270 nM | 390 nM | NC(=O)[C@@H]1[C@H](Nc2nc(Nc3cccc(-c4cnco4)c3)ncc2-c2cccc(F)c2)[C@H]2C=C[C@@H]1C2 |  |
|  |  | 40 nM | NC(=O)[C@@H]1[C@H](Nc2nc(Nc3cccc(C(=O)N4CCCC4)c3)ncc2-c2ccoc2)[C@H]2C=C[C@@H]1C2 |  |
|  |  | 190 nM | N#Cc1ccc(-c2cnc(Nc3cccc(C(=O)N4CCCC4)c3)nc2N[C@H]2[C@@H](C(N)=O)[C@@H]3C=C[C@H]2C3)cc1 |  |
| 26 nM | 280 nM | 240 nM | CN1CCN(c2ccc(Nc3ncc(-c4cccc(F)c4)c(N[C@H]4[C@@H](C(N)=O)[C@@H]5C=C[C@H]4C5)n3)cn2)CC1 |  |
| 26 nM | 250 nM | 230 nM | NC(=O)[C@@H]1[C@H](Nc2nc(Nc3ccc(C(=O)N4CCCC4)cc3)ncc2-c2cccnc2)[C@H]2C=C[C@@H]1C2 |  |
|  | 170 nM | 220 nM | NC(=O)[C@@H]1[C@H](Nc2nc(Nc3cccc(C(=O)N4CCCC4)c3)ncc2-c2ccccc2)[C@H]2C=C[C@@H]1C2 |  |
|  |  | 460 nM | NC(=O)[C@@H]1[C@H](Nc2nc(Nc3cccc(C(=O)N4CCCC4)c3)ncc2-c2ccc(F)cc2)[C@H]2C=C[C@@H]1C2 |  |
| 11 nM |  | 130 nM | NC(=O)[C@@H]1[C@H](Nc2nc(Nc3cccc(C(=O)N4CCCC4)c3)ncc2-c2ccccc2F)[C@H]2C=C[C@@H]1C2 |  |
| 179 nM | 450 nM | 1100 nM | Cc1cc(Nc2ncc(-c3cccnc3)c(N[C@H]3[C@@H](C(N)=O)[C@@H]4C=C[C@H]3C4)n2)ccc1OCCN1CCCC1 |  |
| 33 nM | 2400 nM | 280 nM | NC(=O)[C@@H]1[C@H](Nc2nc(Nc3ccnc(N4CCCC4)c3)ncc2-c2cccc(F)c2)[C@H]2C=C[C@@H]1C2 |  |
|  |  | 320 nM | NC(=O)[C@@H]1[C@H](Nc2nc(Nc3cccc(C(=O)N4CCCC4)c3)ncc2-c2cccnc2)[C@H]2C=C[C@@H]1C2 |  |
